Data reported in US20190192699A1, “NUCLEAR IMAGING AND RADIOTHERAPEUTICS AGENTS TARGETING CARBONIC ANHYDRASE IX AND USES THEREOF” (THE JOHNS HOPKINS UNIVERSITY, priority 2016, published 2019).

Columns and labels:
[1] = target: T1, CAIX (Homo sapiens, UniProt Q16790); assay: Competitive fluorescence polarization assay for [113/115In]XYIMSR-01; type: binding; set-up: purchased R&D Systems
Text: (§1) General Procedures. Solvents and chemicals obtained from commercial sources were of analytical grade or better and used without further purification. Fmoc-protected azidolysine, HBTU, and N-α-fmoc-L-aspartic acid α-tert-butyl ester were purchased from Chem Impex International, Inc. (Wooddale, Ill.). Carrier-free [^111In]InCl3 was purchased from MDS Nordion (Ottawa, ON, Canada). DOTA-NHS-ester (1,4,7,10-tetraazacyclododecane-1,4,7,10-tetraacetic acid mono N-hydroxysuccinimide ester) was purchased from Macrocyclics, Inc. (Dallas, Tex.). Indium (III) nitrate, triethylsilane (Et3SiH), N,N-diisopropylethylamine (DIEA), triethylamine (TEA), piperidine, 4,4-bis(4-hydroxyphenyl)valeric acid, copper iodide (CuI), and tris[(1-benzyl-1H-1,2,3-triazol-4-yl)methyl]amine (TBTA) were purchased from Sigma-Aldrich (Saint Louis, Mo.). Pre-loaded O-bis-(aminoethyl)ethylene glycol on trityl resin was purchased from EMD Millipore (Billerica, Mass.). Flash chromatography was performed using MP SiliTech 32-63 D 60 Å silica gel purchased from Bodman (Aston, Pa.). Recombinant human CAIX was purchased from R&D Systems (Minneapolis, Minn.). 1H NMR spectra were recorded on a Bruker Ultrashield 500 MHz spectrometer. Chemical shifts (δ) were reported in ppm downfield by reference to proton resonances resulting from incomplete deuteration of the NMR solvent. ESI mass spectra were obtained on a Bruker Daltonics Esquire 3000 Plus spectrometer (Billerica, Mass.).
Competitive Fluorescence Polarization Assay for [^113/115In]XYIMSR-01. Fluorescence polarization (FP) experiments were performed in 21 μL of the assay buffer (12.5 mM Tris-HCl, pH 7.5, 75 mM NaCl) in black flat bottom 384-well microplates (Corning, Inc., New York, N.Y.) The FP reaction employed 100 nM of purified CAIX (R&D systems, Minneapolis, Minn.) and 80 nM FITC-labeled 8 (Wichert, et al., 2015) within the assay buffer. The FP values were measured as mP units using the Victor3 multi-label plate reader equipped with excitation (485 nm) and emission (535 nm) filters (Perkin Elmer, Waltham, Mass.). 100 nM CAIX was incubated with serially diluted (from 1 μM to 61 fM) concentrations of the three targeting molecules, 2, XYIMSR-01, and [^113/115In]XYIMSR-01 for 30 min at room temperature in 384-well plates. 80 nM 8 was added to each well and the reaction was incubated for 30 min at room temperature followed by FP measurement. Experiments were carried out in triplicate and the concentration resulting in 50% response (IC50) was calculated in GraphPad Prism 5 (GraphPad Software, La Jolla, Calif.) using the sigmoidal dose-response regression function.

[2] = target: T1, CAIX; set-up: host or cells: ccRCC tumours in patients; settings: Wichert et al., 2015; read-out: Kd for CAIX (known / reported); cited from earlier work
[3] = target: T1, CAIX; assay: Competitive fluorescence polarization assay for [Al19F]XYIMSR-04, [63/65Cu]XYIMSR-06 and [175Lu]XYIMSR-01; type: binding; set-up: purchased R&D Systems; settings: 100 nM CAIX, 80 nM FITC-labeled ligand; read-out: IC50, competitive fluorescence polarization (similar method)
Text: as §1
Competitive Fluorescence Polarization Assay for [Al^19F]XYIMSR-04, [^63/65Cu]XYIMSR-06, and [^175Lu]XYIMSR-01. Fluorescence polarization (FP) experiments were performed in 21 μL of the assay buffer (12.5 mM Tris-HCl, pH 7.5, 75 mM NaCl) in transparent flat bottom 384 well Small Volume™ LoBase Microplates (Greiner Bio-One, Frickenhausen Germany). The FP reaction employed 100 nM of purified CAIX (R&D systems, Minneapolis, Minn.) and 80 nM FITC-labeled ligand within the assay buffer. The FP values were measured as mP units using the Safire2™ plate reader (Tecan, Morrisville, N.C.) with excitation at 475 nm and emission at 532 nm emission. 100 nM CAIX was incubated with serially diluted (from 8 μM to 488.2 fM) concentrations of the […] targeting molecules, 2, [Al^19F]XYIMSR-04, [^63/65Cu]XYIMSR-06 and [^175Lu]XYIMSR-01 for 30 min at room temperature in 384 well plates. 80 nM FITC-labeled ligand was added to each well and the reaction was incubated for 30 min at room temperature followed by FP measurements. Experiments were carried out in triplicate and the concentration resulting in 50% response (IC50) was calculated in GraphPad Prism 5 (GraphPad Software, La Jolla, Calif.) using the sigmoidal dose-response regression function.

IC50 ([1]; 100 nM CAIX, 80 nM FITC-labeled 8, read-out: IC50, inhibition of fluorescence polarization of FITC labeled 8): 75.9 nM
binding affinity to CAIX (in words) ([1]; competitive fluorescence polarization): high binding affinity
IC50 [3]: 63.6 ± 2.8 nM
Compound: CC(CCC(=O)N[C@@H](CC(=O)N[C@@H](CC(=O)N[C@@H](CCCCn1cc(CCCC(=O)Nc2nnc(S(N)(=O)=O)s2)nn1)C(=O)NCCOCCOCCN)C(=O)O)C(=O)O)(c1ccc(O)cc1)c1ccc(O)cc1 [compound 3, N^4-((S)-1-((2-(2-(2-aminoethoxy)ethoxy)ethyl)amino)-1-oxo-6-(4-(4-oxo-4((5-sulfamoyl-1,3,4-thiadiazol-2-yl)amino)butyl)-1H-1,2,3-triazol-1-yl)hexan-2-yl)-N^2-((S)-3-(4,4-bis(4-hydroxyphenyl)pentanamido)-3-carboxypropanoyl)-L-asparagine, reference compound]
Kd [2]: 2.6 nM
